Experimental data: patent US6969702B2, “Compounds and methods for increasing neurogenesis” (priority 2002, dated 2005)
Read-outs that look alike come from different tables or passages of the source. Marks after values point to notes of the source that are not given here. Square brackets hold non-standard residues; d marks the D form. Ends that are not written are not given here. Peptide text beside a SMILES is read from it. pGlu = O=C1CC[C@@H](C(=O)O)N1

Key:
[1] = system: adenylate cyclase in UMR 106-06 cells; settings: relative to sCT; cited from earlier work
[2] = system: CREB phosphorylation in human adult neural stem cells; assay type: cell-based; settings: 100 nM
[3] = system: cAMP activation in mouse adult neural stem cells; experiment: cAMP detection (HitHunter EFC Cyclic AMP Chemiluminescence Assay)
[4] = system: NFAT-Luciferace reporter (Ca^2+)
[5] = system: CREB phosphorylation in mouse adult neural stem cells; assay type: cell-based; settings: 100 nM
Adult neural stem cells [6] = experiment: Flow cytometry for early neuronal marker Doublecortin
[7] = system: mouse adult neural stem cells; experiment: ATP-assay: proliferation (ATP levels) of neurosphere-derived cells
[8] = system: mouse adult neural stem cells; settings: 0.1 µM
[9] = system: cAMP activation in mouse adult neural stem cells
Adult neural stem cells [10] = settings: 0.1 µM
[11] = biological target: dipeptidyl peptidase-IV (DPP-VI) (Homo sapiens, UniProt P27487); settings: in mammals; cited from earlier work
dipeptidyl peptidase-IV (DPP-VI), sequence (P27487 whole entry, species assumed): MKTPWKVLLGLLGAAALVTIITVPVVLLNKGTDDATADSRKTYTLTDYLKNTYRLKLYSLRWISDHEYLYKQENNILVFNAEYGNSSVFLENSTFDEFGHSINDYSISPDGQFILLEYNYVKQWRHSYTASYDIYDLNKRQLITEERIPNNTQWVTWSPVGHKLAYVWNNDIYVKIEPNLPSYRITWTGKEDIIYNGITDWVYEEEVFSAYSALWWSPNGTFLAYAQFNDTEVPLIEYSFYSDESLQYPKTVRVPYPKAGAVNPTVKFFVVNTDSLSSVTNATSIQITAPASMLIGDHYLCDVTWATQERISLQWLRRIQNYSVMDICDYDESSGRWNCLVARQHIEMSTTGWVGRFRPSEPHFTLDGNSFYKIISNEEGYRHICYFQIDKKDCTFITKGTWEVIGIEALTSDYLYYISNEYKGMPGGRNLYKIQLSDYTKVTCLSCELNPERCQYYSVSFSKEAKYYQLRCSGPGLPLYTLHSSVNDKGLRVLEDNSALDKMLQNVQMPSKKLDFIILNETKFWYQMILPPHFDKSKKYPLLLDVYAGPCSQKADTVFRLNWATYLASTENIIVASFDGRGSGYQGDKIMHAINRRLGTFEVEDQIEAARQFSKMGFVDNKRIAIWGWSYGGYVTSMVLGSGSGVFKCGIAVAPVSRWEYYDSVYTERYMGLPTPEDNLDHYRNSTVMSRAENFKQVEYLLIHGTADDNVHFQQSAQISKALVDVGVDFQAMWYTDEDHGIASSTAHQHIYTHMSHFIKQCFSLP

[12] = system: newborn cells (BrdU positive) in sub ventricular zone and dentate gyrus; experiment: In vivo progenitor cell proliferation (BrdU); parameters: species or system Wistar rats; settings: 10 mg/kg intraperitoneally twice daily 7 days with BrdU
neural stem cells = experiment: In vitro proliferation measured with ATP (Example 14); assay type: cell-based; parameters: cell proliferation (ATP), fold the level of control cells: dose or concentration left out as unconfirmed
Experimental: To determine proliferation, neurospheres were split and seeded in Neurosphere medium as single cells in 96-well plates, at 10,000 cells/well. The following experiment was performed in sets of four parallel experiments (i.e., performed in quadruplicate) such that the cells may be used for different assays. Substances to be tested were added and cells were incubated at 37° C. for 4 days. Cells were lysed with 0.1 % Triton-X100 in Tris-EDTA buffer. Intracellular ATP was measured using an ATP-SL kit according to the manufacturer's instructions (BioThema, Sweden).

[13] = Table 2, 100 nM (cAMP concentration)

CSNLSTCVLGRLSKDLHRLQTFPRTNTGAGVP (cysteine pairing not given here) [[Arg11, 18, Lys14]-sCT]
potency in activating adenylate cyclase [1]: equivalent to that of sCT

cholera toxin
CREB phosphorylation [2]: up-regulation of CREB phosphorylation
cAMP (pmol/well) [3]: 0.07 ± 0.01 pmol/well
Fold Induction cAMP ([3]; 10 nM): 3.1*** fold
Fold Induction NFAT ([4]; 100 nM): 1.4** fold
NFAT Luciferace units ([4]; 100 nM): 11.6 ± 1.0 Luciferace units
CREB phosphorylation [5]: up-regulation of CREB phosphorylation
Fold Induction (Doublecortin-positive cells) (Adult neural stem cells [6]; 100 nM): 2.6 fold
% Doublecortin-positive cells (Adult neural stem cells [6]; 100 nM, 4 days): 6.7%
proliferation of neural stem cells [7]: increase
ATP (nM ATP/well) ([7]; 100 nM): 12.9 ± 1.6 nM ATP/well
Fold Induction ATP ([7]; 100 nM): 1.4* fold
Fold Induction ATP ([7]; 100 nM, 4 days): 1.4* fold

CC[C@H](C)[C@H](NC(=O)[C@H](CCC(N)=O)NC(=O)[C@H](Cc1c[nH]cn1)NC(=O)[C@H](C)NC(=O)[C@H](CC(C)C)NC(=O)[C@H](CCCCN)NC(=O)[C@H](CCC(N)=O)NC(=O)[C@@H](NC(=O)[C@@H](N)[C@@H](C)O)C(C)C)C(=O)N[C@@H](Cc1ccc(O)cc1)C(=O)N[C@@H](CCC(N)=O)C(=O)N[C@@H](Cc1ccccc1)C(=O)N[C@H](C(=O)N[C@@H](CC(=O)O)C(=O)N[C@@H](CCCCN)C(=O)N[C@@H](CC(=O)O)C(=O)N[C@@H](CCCCN)C(=O)N[C@@H](CC(=O)O)C(=O)N[C@@H](CC(N)=O)C(=O)N[C@H](C(=O)N[C@@H](C)C(=O)N1CCC[C@H]1C(=O)N[C@@H](CCCNC(=N)N)C(=O)N[C@@H](CO)C(=O)N[C@@H](CCCCN)C(=O)N[C@H](C(=O)N[C@@H](CO)C(=O)N1CCC[C@H]1C(=O)N[C@@H](CCC(N)=O)C(=O)NCC(=O)N[C@@H](Cc1ccc(O)cc1)C(N)=O)[C@@H](C)CC)C(C)C)[C@@H](C)O [Adrenomedullin (22-52)]
Fold Induction ATP [8]: 1.6** fold
Fold Induction cAMP ([9]; 0.1 µM): 1.6* fold
cAMP (pmol/well) [3, 13]: 0.34 ± 0.07 pmol/well
Fold Induction (Doublecortin-positive cells) (Adult neural stem cells [10]): 0.8 fold
% Doublecortin-positive cells (Adult neural stem cells [6]): 2.0%
ATP (nM ATP/well) ([7]; Table 2, 100 nM, 4 days): 12.3 ± 1.1 nM ATP/well

PACAP: pituitary adengate cyclase activating peptide, cAMP activator (HSDGIFTDSYSRYRKQMAVKKYLAAVLGKRYKQRVKNK; ends and bridges not checked; UniProt P18509 132-169, looked up)
CREB phosphorylation ([2]; human adult neural stem cells, time course 15 minutes to 8 hours): up-regulation of CREB phosphorylation
CREB phosphorylation ([5]; mouse adult neural stem cells, time course 15 minutes to 8 hours): up-regulation of CREB phosphorylation

CC[C@H](C)[C@H](NC(=O)[C@H](Cc1ccccc1)NC(=O)[C@H](C)NC(=O)[C@H](CC(=O)O)NC(=O)[C@H](CCCCN)NC(=O)[C@H](CO)NC(=O)[C@@H]1CCCN1C(=O)[C@@H]1CCC(=O)N1)C(=O)NCC(=O)N[C@@H](CC(C)C)C(=O)N[C@@H](CCSC)C(N)=O [Eledoisin] ([pGlu]PSKDAFIGLM-NH2)
Fold Induction ATP ([8]; mouse): 1.2* fold
Fold Induction cAMP ([9]; mouse, 0.001 µM): 1.2* (1 nM) fold
cAMP (pmol/well) ([3]; Table 2, 1 nM (cAMP concentration)): 1.0 ± 0.06 pmol/well
Fold Induction (Doublecortin-positive cells) (Adult neural stem cells [10]; mouse): 1.7 fold
% Doublecortin-positive cells (Adult neural stem cells [6]; Table 6, 100 nM, 4 days): 4.3%
ATP (nM ATP/well) ([7]; Table 2, 100 nM, 4 days): 10.4 ± 1.1 nM ATP/well

His-Asp-Glu-Phe-Glu-Arg-His-Ala-Glu-Gly-Thr-Phe-Thr-Ser-Asp-Val-Ser-Ser-Tyr-Leu-Glu-Gly-Gln-Ala-Ala-Lys-Glu-Phe-Ile-Ala-Trp-Leu-Val-Lys-Gly-Arg-Gly [GLP-1]
halftime of degradation [11]: less than 2 min

CC[C@H](C)[C@H](NC(=O)[C@H](CCC(N)=O)NC(=O)[C@H](Cc1c[nH]cn1)NC(=O)[C@H](C)NC(=O)[C@H](CC(C)C)NC(=O)[C@H](CCCCN)NC(=O)[C@H](CCC(N)=O)NC(=O)[C@@H](NC(=O)[C@@H](NC(=O)[C@@H]1CSSC[C@H](NC(=O)CNC(=O)[C@H](Cc2ccccc2)NC(=O)[C@H](CO)NC(=O)[C@H](CCCNC(=N)N)NC(=O)[C@H](CC(C)C)NC(=O)CNC(=O)[C@H](CCC(N)=O)NC(=O)[C@H](Cc2ccccc2)NC(=O)[C@H](CC(N)=O)NC(=O)[C@H](CC(N)=O)NC(=O)[C@H](CCSC)NC(=O)[C@H](CO)NC(=O)[C@H](CCC(N)=O)NC(=O)[C@H](CCCNC(=N)N)NC(=O)[C@@H](N)Cc2ccc(O)cc2)C(=O)N[C@@H](CCCNC(=N)N)C(=O)N[C@@H](Cc2ccccc2)C(=O)NCC(=O)N[C@@H]([C@@H](C)O)C(=O)N1)[C@@H](C)O)C(C)C)C(=O)N[C@@H](Cc1ccc(O)cc1)C(=O)N[C@@H](CCC(N)=O)C(=O)N[C@@H](Cc1ccccc1)C(=O)N[C@H](C(=O)N[C@@H](CC(=O)O)C(=O)N[C@@H](CCCCN)C(=O)N[C@@H](CC(=O)O)C(=O)N[C@@H](CCCCN)C(=O)N[C@@H](CC(=O)O)C(=O)N[C@@H](CC(N)=O)C(=O)N[C@H](C(=O)N[C@@H](C)C(=O)N1CCC[C@H]1C(=O)N[C@@H](CCCNC(=N)N)C(=O)N[C@@H](CO)C(=O)N[C@@H](CCCCN)C(=O)N[C@H](C(=O)N[C@@H](CO)C(=O)N1CCC[C@H]1C(=O)N[C@@H](CCC(N)=O)C(=O)NCC(=O)N[C@@H](Cc1ccc(O)cc1)C(N)=O)[C@@H](C)CC)C(C)C)[C@@H](C)O [Adrenomedullin (human)]
Fold Induction ATP [8]: 1.1* fold
Fold Induction cAMP ([9]; 0.1 µM): 2.5** fold
cAMP (pmol/well) [3, 13]: 0.15 ± 0.3 pmol/well
Fold Induction NFAT ([4]; 0.1 µM): 2.2** fold
NFAT Luciferace units ([4]; Table 4, 100 nM, 24 hours after induction): 12.4 ± 0.9 Luciferace units
Fold Induction (Doublecortin-positive cells) (Adult neural stem cells [10]): 1.6 fold
% Doublecortin-positive cells (Adult neural stem cells [6]; Table 6, 100 nM, 4 days): 4.2%
ATP (nM ATP/well) ([7]; Table 2, 100 nM, 4 days): 11.6 ± 0.8 nM ATP/well
ATP (nM ATP/well) ([7]; Table 4, 100 nM): 11.6 ± 0.8 nM ATP/well

CC[C@H](C)[C@H](NC(=O)[C@H](C)NC(=O)[C@@H](NC(=O)[C@H](CCC(N)=O)NC(=O)[C@@H]1CCCN1C(=O)[C@H](Cc1ccccc1)NC(=O)[C@@H](NC(=O)[C@H](Cc1c[nH]cn1)NC(=O)[C@H](Cc1ccccc1)NC(=O)[C@H](CCCCN)NC(=O)[C@H](CC(N)=O)NC(=O)[C@H](Cc1ccccc1)NC(=O)[C@H](CC(=O)O)NC(=O)[C@H](CCC(N)=O)NC(=O)[C@@H](NC(=O)[C@H](Cc1ccc(O)cc1)NC(=O)[C@@H](NC(=O)CNC(=O)[C@H](CC(C)C)NC(=O)[C@H](CCSC)NC(=O)[C@@H]1CSSC[C@H](N)C(=O)NCC(=O)N[C@@H](CC(N)=O)C(=O)N[C@@H](CC(C)C)C(=O)N[C@@H](CO)C(=O)N[C@@H]([C@@H](C)O)C(=O)N1)[C@@H](C)O)[C@@H](C)O)[C@@H](C)O)[C@@H](C)O)C(=O)NCC(=O)N[C@H](C(=O)NCC(=O)N[C@@H](C)C(=O)N1CCC[C@H]1C(N)=O)C(C)C [calcitonin]
number of newborn cells (BrdU positive compared to sham injected) [12]: significant increase
cell proliferation (ATP), fold the level of control cells (neural stem cells; 4 days): 2.5 fold
EC50 (neural stem cells; neural stem cell cultures, read-out: EC50 value (proliferation dose-response curve, FIG. 3)): 0.03 nM

CC[C@H](C)[C@H](NC(=O)CNC(=O)[C@H](CC(=O)O)NC(=O)[C@H](CO)NC(=O)[C@@H](N)Cc1cnc[nH]1)C(=O)N[C@@H](Cc1ccccc1)C(=O)N[C@H](C(=O)N[C@@H](CC(=O)O)C(=O)N[C@@H](CO)C(=O)N[C@@H](Cc1ccc(O)cc1)C(=O)N[C@@H](CO)C(=O)N[C@@H](CCCNC(=N)N)C(=O)N[C@@H](Cc1ccc(O)cc1)C(=O)N[C@@H](CCCNC(=N)N)C(=O)N[C@@H](CCCCN)C(=O)N[C@@H](CCC(N)=O)C(=O)N[C@@H](CCSC)C(=O)N[C@@H](C)C(=O)N[C@H](C(=O)N[C@@H](CCCCN)C(=O)N[C@@H](CCCCN)C(=O)N[C@@H](Cc1ccc(O)cc1)C(=O)N[C@@H](CC(C)C)C(=O)N[C@@H](C)C(=O)N[C@@H](C)C(=O)N[C@H](C(=O)N[C@@H](CC(C)C)C(=O)NCC(=O)N[C@@H](CCCCN)C(=O)N[C@@H](CCCNC(=N)N)C(=O)N[C@@H](Cc1ccc(O)cc1)C(=O)N[C@@H](CCCCN)C(=O)N[C@@H](CCC(N)=O)C(=O)N[C@@H](CCCNC(=N)N)C(=O)N[C@H](C(=O)N[C@@H](CCCCN)C(=O)N[C@@H](CC(N)=O)C(=O)N[C@@H](CCCCN)C(N)=O)C(C)C)C(C)C)C(C)C)[C@@H](C)O [PACAP-38]
cAMP (pmol/well) [3, 13]: 0.13 ± 0.03 pmol/well
Fold Induction cAMP ([3]; Table 2, 100 nM, vs vehicle): 4.2** fold
NFAT Luciferace units ([4]; Table 4, 10 nM, 24 hours after induction): 6.2 ± 1.6 Luciferace units
Fold Induction NFAT ([4]; Table 4, 10 nM, vs vehicle): 1.7* fold
% Doublecortin-positive cells (Adult neural stem cells [6]; Table 6, 100 nM, 4 days): 5.2%
Fold Induction (Doublecortin-positive cells) (Adult neural stem cells [6]; Table 6, 100 nM, vs EGF/FGF): 2.0 fold
ATP (nM ATP/well) ([7]; Table 2, 100 nM, 4 days): 26.9 ± 3.7 nM ATP/well
Fold Induction ATP ([7]; Table 2, 100 nM, 4 days, vs vehicle): 2.9** fold
ATP (nM ATP/well) ([7]; Table 4, 10 nM): 22.0 ± 0.9 nM ATP/well
Fold Induction ATP ([7]; Table 4, 10 nM, vs vehicle): 2.3*** fold
